According to patent publication US10344025B2, “GLS1 inhibitors for treating disease” (Board of Regents, The University of Texas System, priority 2014, dated 2019):
Read-outs that look alike come from different tables or passages of the source.

Key:
A549 cells = test: Proliferation Assay (A549 viability, Cell Titer Fluor, 72 hours); format: cell-based
In short: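 A549 cells seeded at 1000 cells/well, rested 24 h, then exposed to compound in 0.5% DMSO for 72 h at 37 °C. Viability read by Cell Titer Fluor fluorescence; IC50 from four-parameter logistic fit.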

[1] = target: purified recombinant human GAC (GLS1) (Homo sapiens (Human), UniProt O94925); test: GLS1 Enzymatic Activity Assay (dual-coupled enzymatic assay, resorufin/Amplex UltraRed readout); format: biochemical;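 note: glutamate from GAC coupled via glutamate oxidase and peroxidase to resorufin, read as fluorescence (ex 530, em 590 nm) kinetically or at 20 min, four-parameter logistic IC50 fit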
Chain of purified recombinant human GAC (GLS1) (O94925 other isoform, or with tags, fused parts or gaps): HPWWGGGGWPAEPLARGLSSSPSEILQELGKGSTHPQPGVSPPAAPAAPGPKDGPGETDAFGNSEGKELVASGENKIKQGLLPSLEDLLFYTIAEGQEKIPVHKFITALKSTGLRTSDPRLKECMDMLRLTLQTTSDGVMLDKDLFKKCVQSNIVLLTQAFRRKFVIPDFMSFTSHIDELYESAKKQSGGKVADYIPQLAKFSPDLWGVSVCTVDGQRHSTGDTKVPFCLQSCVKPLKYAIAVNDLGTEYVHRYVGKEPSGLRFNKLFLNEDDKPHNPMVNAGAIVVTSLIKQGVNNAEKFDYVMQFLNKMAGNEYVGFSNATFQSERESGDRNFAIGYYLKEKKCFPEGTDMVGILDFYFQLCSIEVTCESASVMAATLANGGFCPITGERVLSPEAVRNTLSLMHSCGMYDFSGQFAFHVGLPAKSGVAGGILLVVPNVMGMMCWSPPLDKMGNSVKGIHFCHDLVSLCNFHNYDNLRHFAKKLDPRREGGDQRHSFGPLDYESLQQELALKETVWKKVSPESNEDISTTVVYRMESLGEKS

Compound	EC50 (A549 cells; Homo sapiens, A549, 72 h) [nM]	IC50 [1] [nM]	EC50 (A549 cells) [nM]
O=C(NCc1cc(C(F)(F)F)ccn1)c1cn(CCCCn2cc(C(=O)NC[C@@H]3CC4CCC3O4)nn2)nn1 (stereo partly drawn) [Example 103, 1-[4-(4-{[(2S)-7-oxabicyclo[2.2.1]heptan-2-ylmethyl]carbamoyl}-1H-1,2,3-triazol-1-yl)butyl]-N-{[4-(trifluoromethyl)pyridin-2-yl]methyl}-1H-1,2,3-triazole-4-carboxamide]	500 to 5000	100 to 500	–
CC(C)(C)OC(=O)N1CC(CNC(=O)c2cn(CCCCn3cc(C(=O)NCc4cccc(OC(F)(F)F)c4)nn3)nn2)C1 [Example 79, tert-butyl 3-{[(1-{4-[4-({[3-(trifluoromethoxy)phenyl]methyl}carbamoyl)-1H-1,2,3-triazol-1-yl]butyl}-1H-1,2,3-triazol-4-yl)formamido]methyl}azetidine-1-carboxylate]	< 100	< 100	–
O=C(NCc1cncc(C(F)(F)F)c1)c1cn(CCCCn2cc(C(=O)NCc3cccc(C(F)(F)F)n3)nn2)nn1 [Example 144, 1-{4-[4-({[6-(trifluoromethyl)pyridin-2-yl]methyl}carbamoyl)-1H-1,2,3-triazol-1-yl]butyl}-N-{[5-(trifluoromethyl)pyridin-3-yl]methyl}-1H-1,2,3-triazole-4-carboxamide]	< 100	< 100	–
Cc1ccc(CNC(=O)c2cn(CCCCn3cc(C(=O)NCc4cccc(OC(F)(F)F)c4)nn3)nn2)cn1 [Example 72, 1-[4-(4-{[(6-methylpyridin-3-yl)methyl]carbamoyl}-1H-1,2,3-triazol-1-yl)butyl]-N-{[3-(trifluoromethoxy)phenyl]methyl}-1H-1,2,3-triazole-4-carboxamide]	< 100	< 100	–
O=C(NCc1cccc(OC(F)(F)F)c1)c1cn(CCCCn2cc(C(=O)NCC3CC4CCC3O4)nn2)nn1 (stereo not shown) [Example 116, N-{7-oxabicyclo[2.2.1]heptan-2-ylmethyl}-1-{4-[4-({[3-(trifluoromethoxy)phenyl]methyl}carbamoyl)-1H-1,2,3-triazol-1-yl]butyl}-1H-1,2,3-triazole-4-carboxamide]	–	< 100	100 to 500
CNC(=O)c1cn(CCC(F)Cn2cc(C(=O)NCc3cnc4ccccc4c3)nn2)nn1 (stereo not shown) [Example 170, 1-(3-fluoro-4-{4-[(quinolin-3-ylmethyl)carbamoyl]-1H-1,2,3-triazol-1-yl}butyl)-N-methyl-1H-1,2,3-triazole-4-carboxamide]	500 to 5000	100 to 500	–
O=C(NCc1ccc(C(F)(F)F)nc1)c1cn(CCCCn2cc(C(=O)NCc3cncc(C(F)(F)F)c3)nn2)nn1 [Example 143, N-{[5-(trifluoromethyl)pyridin-3-yl]methyl}-1-{4-[4-({[6-(trifluoromethyl)pyridin-3-yl]methyl}carbamoyl)-1H-1,2,3-triazol-1-yl]butyl}-1H-1,2,3-triazole-4-carboxamide]	< 100	< 100	–
O=C(NCc1cc(C(F)(F)F)ccn1)c1cn(CCCCn2cc(C(=O)NCC3CCC3)nn2)nn1 [Example 85, 1-(4-{4-[(cyclobutylmethyl)carbamoyl]-1H-1,2,3-triazol-1-yl}butyl)-N-{[4-(trifluoromethyl)pyridin-2-yl]methyl}-1H-1,2,3-triazole-4-carboxamide]	500 to 5000	500 to 5000	–
CNC(=O)c1cn(CCC(F)Cn2cc(C(=O)NCc3cccc(OC(F)(F)F)c3)nn2)nn1 (stereo not shown) [Example 162, 1-{3-fluoro-4-[4-({[3-(trifluoromethoxy)phenyl]methyl}carbamoyl)-1H-1,2,3-triazol-1-yl]butyl}-N-methyl-1H-1,2,3-triazole-4-carboxamide]	100 to 500	100 to 500	–
O=C(NCc1cccc(OC(F)(F)F)c1)c1cn(CCCCn2cc(C(=O)NCc3cc(C4CC4)ccn3)nn2)nn1 [Example 106, N-[(4-cyclopropylpyridin-2-yl)methyl]-1-{4-[4-({[3-(trifluoromethoxy)phenyl]methyl}carbamoyl)-1H-1,2,3-triazol-1-yl]butyl}-1H-1,2,3-triazole-4-carboxamide]	< 100	< 100	–
CC(C)(C)OC(=O)N1CC(CNC(=O)c2nnc(CCCCn3cc(C(=O)NCc4cccc(OC(F)(F)F)c4)nn3)s2)C1 [Example 73, tert-butyl 3-{[(5-{4-[4-({[3-(trifluoromethoxy)phenyl]methyl}carbamoyl)-1H-1,2,3-triazol-1-yl]butyl}-1,3,4-thiadiazol-2-yl)formamido]methyl}azetidine-1-carboxylate]	< 100	< 100	–

Next, values leading:

EC50 (A549 cells; Homo sapiens, A549, 72 h) [nM]	IC50 [1] [nM]	EC50 (A549 cells) [nM]	Compound
< 100	< 100	–	CC(=O)Nc1ccc(CCCCc2nnc(C(=O)NCc3cc(C(F)(F)F)ccn3)s2)nn1 [Example 601, 5-(4-(6-acetamidopyridazin-3-yl)butyl)-N-((4-(trifluoromethyl)pyridin-2-yl)methyl)-1,3,4-thiadiazole-2-carboxamide]
< 100	< 100	–	O=C(Cc1ccccn1)Nc1cn(CC(F)CCn2cc(C(=O)NCc3cccc(OC(F)(F)F)c3)nn2)nn1 (stereo not shown) [Example 347, 1-(3-fluoro-4-(4-(2-(pyridin-2-yl)acetamido)-1H-1,2,3-triazol-1-yl)butyl)-N-(3-(trifluoromethoxy)benzyl)-1H-1,2,3-triazole-4-carboxamide]
100 to 500	< 100	–	O=C(Cc1cccc(OC(F)(F)F)c1)Nc1nnc(CCC(F)Cn2cc(C(=O)NC3CC3)nn2)s1 (stereo not shown) [Example 534, N-cyclopropyl-1-[2-fluoro-4-(5-{2-[3-(trifluoromethoxy)phenyl]acetamido}-1,3,4-thiadiazol-2-yl)butyl]-1H-1,2,3-triazole-4-carboxamide]
< 100	< 100	–	O=C(NCc1cc(OC(F)(F)F)ccc1F)c1cn(CCC(F)Cn2cc(C(=O)NCc3ncccc3F)nn2)nn1 (stereo not shown) [Example 427, 1-{2-fluoro-4-[4-({[2-fluoro-5-(trifluoromethoxy)phenyl]methyl}carbamoyl)-1H-1,2,3-triazol-1-yl]butyl}-N-[(3-fluoropyridin-2-yl)methyl]-1H-1,2,3-triazole-4-carboxamide]
< 100	< 100	–	O=C(Cc1ccccn1)Nc1ccc(CCCCn2cc(C(=O)NCc3cc(OC(F)(F)F)ccc3F)nn2)nn1 [Example 588, N-(2-fluoro-5-(trifluoromethoxy)benzyl)-1-(4-(6-(2-(pyridin-2-yl)acetamido)pyridazin-3-yl)butyl)-1H-1,2,3-triazole-4-carboxamide]
> 5000	100 to 500	–	CNC(=O)c1cn(CCC(F)Cn2cc(C(=O)NCc3cccc(S(C)(=O)=O)c3)nn2)nn1 (stereo not shown) [Example 183, 1-[3-fluoro-4-(4-{[(3-methanesulfonylphenyl)methyl]carbamoyl}-1H-1,2,3-triazol-1-yl)butyl]-N-methyl-1H-1,2,3-triazole-4-carboxamide]
100 to 500	< 100	–	CNC(=O)c1cn(CCCCc2ccc(NC(=O)Cc3cccc(N(C)C)c3)nn2)nn1 [Example 237, 1-(4-(6-(2-(3-(dimethylamino)phenyl)acetamido)pyridazin-3-yl)butyl)-N-methyl-1H-1,2,3-triazole-4-carboxamide]
500 to 5000	100 to 500	–	O=C(Cc1cc(Cl)ccc1F)Nc1cn(CCCCn2cc(C(=O)NCc3ncccc3F)nn2)nn1 [Example 387, 1-(4-{4-[2-(5-chloro-2-fluorophenyl)acetamido]-1H-1,2,3-triazol-1-yl}butyl)-N-[(3-fluoropyridin-2-yl)methyl]-1H-1,2,3-triazole-4-carboxamide]
< 100	< 100	–	O=C(Cc1cccc(OC(F)(F)F)c1)Nc1cn(CCCCn2cc(C(=O)NCc3cc(Cl)ccc3F)nn2)nn1 [Example 334, N-[(5-chloro-2-fluorophenyl)methyl]-1-[4-(4-{2-[3-(trifluoromethoxy)phenyl]acetamido}-1H-1,2,3-triazol-1-yl)butyl]-1H-1,2,3-triazole-4-carboxamide]
100 to 500	100 to 500	–	O=C(NCC1CCCCO1)c1cn(CCC(F)Cn2cc(C(=O)NCc3cc(C(F)(F)F)ccn3)nn2)nn1 (stereo not shown) [Example 472, 1-(2-fluoro-4-{4-[(oxan-2-ylmethyl)carbamoyl]-1H-1,2,3-triazol-1-yl}butyl)-N-{[4-(trifluoromethyl)pyridin-2-yl]methyl}-1H-1,2,3-triazole-4-carboxamide]
< 100	< 100	–	O=C(Cc1ccccn1)Nc1nnc(CCC(F)Cn2cc(C(=O)NCc3cccc(OC(F)(F)F)c3)nn2)s1 (stereo not shown) [Example 513, 1-(2-fluoro-4-{5-[2-(pyridin-2-yl)acetamido]-1,3,4-thiadiazol-2-yl}butyl)-N-{[3-(trifluoromethoxy)phenyl]methyl}-1H-1,2,3-triazole-4-carboxamide]
< 100	< 100	–	O=C(Cc1cc(OC(F)(F)F)ccc1F)Nc1nnc(CCC(F)Cn2cc(C(=O)NCc3cc(C(F)(F)F)ccn3)nn2)s1 (stereo not shown) [Example 517, 1-[2-fluoro-4-(5-{2-[2-fluoro-5-(trifluoromethoxy)phenyl]acetamido}-1,3,4-thiadiazol-2-yl)butyl]-N-{[4-(trifluoromethyl)pyridin-2-yl]methyl}-1H-1,2,3-triazole-4-carboxamide]
< 100	< 100	–	CNC(=O)c1cn(CCCCc2ccc(NC(=O)Cc3cccc(C4CCN(C(=O)OC(C)(C)C)CC4)c3)nn2)nn1 [Example 213, tert-butyl 4-(3-(2-((6-(4-(4-(methylcarbamoyl)-1H-1,2,3-triazol-1-yl)butyl)pyridazin-3-yl)amino)-2-oxoethyl)phenyl)piperidine-1-carboxylate]
< 100	< 100	–	O=C(Cc1cc(OC(F)(F)F)ccc1F)Nc1ccc(CCCCn2cc(C(=O)NC3CC3)nn2)nn1 [Example 583, N-cyclopropyl-1-(4-(6-(2-(2-fluoro-5-(trifluoromethoxy)phenyl)acetamido)pyridazin-3-yl)butyl)-1H-1,2,3-triazole-4-carboxamide]
< 100	< 100	–	O=C(Cc1cccc(OC(F)(F)F)c1)Nc1cn(CC(F)CCn2cc(C(=O)NCc3cc(C(F)(F)F)ccn3)nn2)nn1 (stereo not shown) [Example 394]
